Results from US20230192617A1, “AZABICYCLIC(THIO)AMIDES AS FUNGICIDAL COMPOUNDS” (Bayer CropScience Aktiengesellschaft, priority 2020, published 2023).

How the values were obtained:
[1] = Measurement of Log P values by HPLC on reversed phase columns (EEC directive 79/831 Annex V.A8); assay type: physicochemical; settings: reversed phase HPLC column, method [a]: LC-UV, acidic range, 0.1% formic acid in water and acetonitrile as eluent
Method in brief: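 Reversed-phase HPLC with UV detection per EEC 79/831 Annex V.A8, linear 10–95% acetonitrile gradient. Aqueous eluent: 0.1% formic acid (acidic), 0.001 M ammonium acetate (neutral), or 0.1% phosphoric acid (acidic); multiple values in one method joined by "+".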

Botrytis cinerea [2] = experiment: In vivo preventive test on Botrytis cinerea (grey mould); settings: 500 ppm of active ingredient, preventive spray on gherkin or cabbage, evaluated 4 to 5 days after inoculation, read-out: efficacy
Method in brief: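 Young gherkin or cabbage plants were sprayed with compound in DMSO/acetone/Tween 80 diluted in water, then inoculated 24 hours later with a B. cinerea spore suspension. Incubation lasted 4 to 5 days: gherkin at 17° C., 90% relative humidity; cabbage at 20° C., 100% relative humidity.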

Pyrenophora teres [3] = experiment: In vivo preventive test on Pyrenophora teres (net blotch on barley); settings: 240 h, 500 ppm of active ingredient, preventive spray on barley, evaluated 10 days after inoculation, read-out: efficacy
Method in brief: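 Young barley plants sprayed preventively with compound formulated in DMSO/acetone/Tween 80 and diluted in water; controls got solvent only. Inoculated 24 hours later with P. teres spore suspension, then held 48 hours at 20° C, 100% RH and 8 days at 20° C, 70-80% RH.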

Sphaerotheca fuliginea = experiment: In vivo preventive test on Sphaerotheca fuliginea (powdery mildew on cucurbits); settings: Podosphaera fuliginea, 192 h; 500 ppm of active ingredient; preventive spray on gherkin; evaluated 8 days after inoculation; read-out: efficacy
Method in brief: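 Young gherkin plants were sprayed with compound in DMSO/acetone/Tween 80 diluted in water. They were inoculated 24 h later with a spore suspension of Sphaerotheca fuliginea. Plants were then kept for 8 days at 20 °C and 70–80% relative humidity.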

[4] = test system: Colletotrichum lindemuthianum; experiment: In vivo preventive test on Colletotrichum lindemuthianum (leaf spot on bean); settings: 168 h, 500 ppm of active ingredient, preventive spray on bean, evaluated 7 days after inoculation, read-out: efficacy
Method in brief: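 Young bean plants sprayed with compound in DMSO/acetone/Tween 80 diluted in water; solvent-only controls. Inoculated 24 h later with C. lindemuthianum spore suspension, then kept 24 h at 20 °C/100% RH and 6 days at 20 °C/90% RH.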

Alternaria alternata = Alternaria alternata in vitro cell test; assay type: cell-based; settings: 120 h, 20 ppm of active ingredient, liquid culture, 5 days incubation, spectrometric measurement of mycelium growth, read-out: efficacy (inhibition of fungal growth)
Method in brief: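 Liquid culture assay in which A. alternata spores in medium received DMSO-solubilized compound (final DMSO ≤1%). After 5 days, mycelium growth was measured spectrometrically. Inhibition was calculated against fungicide-free control wells.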

[5] = test system: Colletotrichum lindemuthianum; experiment: B-8. Colletotrichum lindemuthianum in vitro cell test; assay type: cell-based; settings: 144 h, 20 ppm of active ingredient, 6 days incubation, liquid culture, absorbance, read-out: efficacy (inhibition of fungal growth)
Method in brief: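 Spore suspension of C. lindemuthianum in liquid medium exposed to DMSO-solubilized compounds (final DMSO ≤1%) for 6 days. Mycelial growth read by absorbance, with inhibition calculated relative to compound-free control wells.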

Septoria tritici = experiment: B-9. Septoria tritici in vitro cell test; assay type: cell-based; settings: Zymoseptoria tritici, 168 h; 20 ppm of active ingredient; 7 days incubation; liquid culture, absorbance; read-out: efficacy (inhibition of fungal growth)
Method: B-9. Septoria tritici In Vitro Cell Test [table] Fungicides were solubilized in DMSO and the solution used to prepare the required range of concentrations. The final concentration of DMSO used in the assay was ≤1%. A spore suspension of S. tritici was prepared and diluted to the desired spore density. Fungicides were evaluated for their ability to inhibit spore germination and mycelium growth in liquid culture assay. The compounds were added in the desired concentration to the culture medium with spores. After 7 days incubation, fungi-toxicity of compounds was determined by spectrometric measurement of mycelium growth. Inhibition of fungal growth was determined by comparing the absorbance values in wells containing the fungicides with the absorbance in control wells without fungicides.

Pyrenophora teres [6] = experiment: B-10. Pyrenophora teres in vitro cell test; assay type: cell-based; settings: 144 h, 20 ppm of active ingredient, 6 days incubation, liquid culture, absorbance, read-out: efficacy (inhibition of fungal growth)
Method in brief: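 Liquid-culture assay on a P. teres spore suspension with compounds added to the medium from DMSO solutions, final DMSO ≤1%. Mycelium growth read spectrometrically after 6 days. Inhibition calculated from absorbance against untreated control wells.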

Botrytis cinerea [7] = experiment: B-11. Botrytis cinerea in vitro cell test; assay type: cell-based; settings: 144 h, 20 ppm of active ingredient, 6 days incubation, liquid culture, absorbance, read-out: efficacy (inhibition of fungal growth)
Method in brief: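 B. cinerea spores were grown in liquid culture with compound (DMSO ≤1% final). Mycelium growth was measured spectrometrically after 6 days, with inhibition taken as absorbance relative to untreated control wells.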

Alternaria brassicae = experiment: In vivo preventive test on Alternaria brassicae (leaf spot on radish or cabbage); settings: 500 ppm of active ingredient, preventive spray on radish or cabbage, evaluated 3 to 4 days after inoculation, read-out: efficacy
Method in brief: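 Young radish or cabbage plants were sprayed with compound dissolved in DMSO/acetone/Tween 80 and diluted in water; controls received solvent only. Inoculation by spraying A. brassicae spore suspension 24 h later, then 3–4 days at 20 °C and 100% relative humidity.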

chromatographic logP [1]	Structure (SMILES)	pest or weed control at 500 ppm (Botrytis cinerea [2])	pest or weed control at 500 ppm (Pyrenophora teres [3])	pest or weed control at 500 ppm (Sphaerotheca fuliginea)	pest or weed control at 500 ppm [4]	inhibition at 20 ppm (Alternaria alternata)	inhibition at 20 ppm [5]	inhibition at 20 ppm (Septoria tritici)	inhibition at 20 ppm (Pyrenophora teres [6])	inhibition at 20 ppm (Botrytis cinerea [7])	pest or weed control at 500 ppm (Alternaria brassicae)
3.73	O=C(NCC(F)(F)c1ccc(Cl)cc1Cl)c1c(Oc2cccc(C(F)F)c2)nnc2c1CCCC2 [I-191]	90 to 100%	90 to 100%	90 to 100%	90 to 100%	90 to 100%	90 to 100%	90 to 100%	90 to 100%	90 to 100%	
3.46	Cc1ccc(C(F)(F)CNC(=O)c2c(Oc3cccc(Br)c3)cnc3nccnc23)c(C)c1 [I-241, 7-(3-bromophenoxy)-N-[2-(2,4-dimethylphenyl)-2,2-difluoro-ethyl]pyrido[2,3-b]pyrazine-8-carboxamide]	90 to 100%			90 to 100%	90 to 100%	90 to 100%	90 to 100%	90 to 100%	90 to 100%	90 to 100%
3.37	Cc1ccc(C(F)(F)CNC(=O)c2c(Oc3cccc(Cl)c3)cnc3nccnc23)c(C)c1 [I-234]	90 to 100%			80 to 89%	90 to 100%	90 to 100%	90 to 100%	90 to 100%	90 to 100%	90 to 100%
4.28	O=C(NCC(F)(F)c1ccc(Cl)cc1Cl)c1c(Oc2cccc(C3CC3)c2F)nnc2c1CCCC2 [I-196]	90 to 100%	90 to 100%	90 to 100%	90 to 100%	90 to 100%	90 to 100%	90 to 100%	90 to 100%	90 to 100%	
4.4	O=C(NCC(F)(F)c1ccc(Br)cc1Cl)c1c(Oc2cccc(Cl)c2F)nnc2c1CCCC2 [I-210]	90 to 100%	90 to 100%	90 to 100%	90 to 100%	90 to 100%	90 to 100%	90 to 100%	90 to 100%	90 to 100%	
3.84	O=C(NCC(F)(F)c1ccc(Br)cc1Cl)c1c(Oc2cccc(C(F)F)c2)nnc2c1CCCC2 [I-208]	90 to 100%	90 to 100%	90 to 100%	90 to 100%	90 to 100%	90 to 100%	90 to 100%	90 to 100%	90 to 100%	
4.05	O=C(NCC(F)(F)c1ccc(Cl)cc1Cl)c1c(Oc2cccc(Cl)c2F)nnc2c1CCCC2 [I-194]	90 to 100%	90 to 100%	90 to 100%	90 to 100%	90 to 100%	90 to 100%	90 to 100%	90 to 100%	90 to 100%	
3.53	O=C(NCCc1ccc2c(c1)CCO2)c1c(Oc2cccc(C(F)(F)F)c2)nnc2ccccc12 [I-081]	90 to 100%			90 to 100%	90 to 100%	90 to 100%	70 to 79%	90 to 100%	90 to 100%	90 to 100%
